{
  "source": "paper PMC11672152",
  "about": "(JACS Au, 2024)",
  "key": {"[1]": {"assay": "In vitro 1O2-scavenging capacity", "format": "biochemical", "details": "amino acid 80 μM; normalized to Cys; Figure S18"}, "[2]": {"system": "•OH in chloroplasts of N. benthamiana leaf discs", "assay": "In vivo •OH level in chloroplasts of leaf discs", "format": "cell-based, Nicotiana benthamiana", "details": "MV 0.35 μM, HPF 5 μM; MV(+) vs MV(−); n = 8; Figure S22"}, "[3]": {"system": "^1O2 in chloroplasts of N. benthamiana leaf discs", "assay": "In vivo 1O2 level in chloroplasts of leaf discs", "format": "cell-based, Nicotiana benthamiana", "details": "MV 0.35 μM, SOSG 10 μM; MV(+) vs MV(−); n = 8; Figure S22"}, "[4]": {"assay": "In vitro •OH-scavenging capacity", "format": "biochemical", "details": "amino acid 80 μM; Cys, Met and Trp compared, normalized to Cys; Figure S18"}},
  "data": [
    {"compound": "N[C@@H](CS)C(=O)O", "note": "[Cys, cysteine]", "values": [
      {"measurement": "1O2-scavenging capacity of amino acids compared with Trp", "setting": "[1]", "result": "more effective scavengers for ^1O2 than Trp"}
    ]},
    {"compound": "C[n+]1ccc(-c2cc[n+](C)cc2)cc1", "note": "[MV, methyl viologen]", "values": [
      {"measurement": "effect on cellular levels of •OH", "setting": "[2]", "result": "elevated the cellular levels of •OH"},
      {"measurement": "effect on cellular levels of 1O2", "setting": "[3]", "result": "did not affect those of ^1O2"}
    ]},
    {"compound": "CSCC[C@H](N)C(=O)O", "note": "[Met, methionine]", "values": [
      {"measurement": "1O2-scavenging capacity of amino acids compared with Trp", "setting": "[1]", "result": "more effective scavengers for ^1O2 than Trp"}
    ]},
    {"compound": "N[C@@H](Cc1c[nH]c2ccccc12)C(=O)O", "note": "[Trp, tryptophan]", "values": [
      {"measurement": "•OH-scavenging capacity of amino acids", "setting": "[4]", "result": "highest •OH-scavenging capacity"}
    ]}
  ]
}
